# Experimental data: patent US5407940A, “New ellipticine compounds” (priority 1992, dated 1995)
# Read-outs that look alike come from different tables or passages of the source.
# Legend:
# M5076 sarcoma = assay: Anti-tumour activity against M5076 sarcoma; type: in vivo, female B6D2F1 mice; conditions: for Survivors on d90 / median T/C (survival): i.p., d1, d5, d9, d13
# Protocol: (§1) M5076 sarcoma is supplied by NCI (Frederick, USA). The tumour cells (10^7 cells/animal) were inoculated on d0 into the peritoneal cavity of female B6D2F1 mice. The compounds were administered by the i.p. route on d1, d5, d9 and d13 at the doses indicated. The surviving animals on d90 were recorded and the T/C survival (%) was calculated.
# P388/VCR-20 = assay: cells; conditions: Mus musculus, P388, 48 h, read-out: Cytotoxicity IC50, resistant P388/VCR-20
# colon 38 = assay: Anti-tumour activity against colon 38; type: in vivo, female B6D2F1 mice; conditions: 15 mg/kg, i.v., d2 and d9, d25
# Protocol: Colon 38 (supplied by NCI, Frederick, USA) was inserted in the form of fragments by the subcutaneous route into female B6D2F1 mice. The compounds were administered by the i.v. route on d2 and d9 and the anti-tumour activity was determined on […] by measuring the tumour volume (T/C volume, %).
# leukaemia P388 [1] = assay: Anti-tumour activity against leukaemia P388 in vivo; conditions: for Survivors on d60/total no. of mice / T/C: intraperitoneal, day 1; for cures, treated mice (comparators): reference compounds, dose not given
# L1210 = assay: Cytotoxicity, line L1210 (Microculture Tetrazolium Assay); type: cell-based, murine; conditions: Mus musculus, L1210, 48 h, read-out: Cytotoxicity IC50, line L1210
# Text: (§2) The cells are distributed on microplates and exposed to the cytotoxic compounds.
# KB-A1 [2] = assay: cells; conditions: Homo sapiens, KB-A1, 96 h, read-out: Cytotoxicity IC50, resistant KB-A1
# P388 = assay: Cytotoxicity, sensitive line P388 (Microculture Tetrazolium Assay); type: cell-based, murine; conditions: Mus musculus, P388, 48 h, read-out: Cytotoxicity IC50, sensitive P388
# Text: as §2
# [3] = test system: Lewis pulmonary carcinoma; assay: Anti-tumour activity against Lewis pulmonary carcinoma; type: in vivo, female B6D2F1 mice; conditions: for Survivors on d90 / median T/C (survival) / median T/C (volume) d20: i.v., d3, d6, d9
# leukaemia P388 [4] = conditions: mouse, in vivo
# S1 = assay: Cytotoxicity, sensitive line S1; type: cell-based; conditions: Homo sapiens, 96 h, read-out: Cytotoxicity IC50, sensitive S1
# Text: as §2
# KB-3-1 = assay: Cytotoxicity, sensitive line KB-3-1; type: cell-based; conditions: Homo sapiens, KB 3-1, 96 h, read-out: Cytotoxicity IC50, sensitive KB-3-1
# Text: as §2
# KB-A1 [5] = test system: KB-A1
# [6] = Anti-tumour activity against M5076 sarcoma; type: in vivo, female B6D2F1 mice; conditions: mouse, in vivo, ip; read-out: maximum tolerated dose
# Protocol: as §1
# [7] = maximum tolerated dose (2 mg/kg)
smiles,measurement,setting,value
"COc1cccc2c1C(=O)c1c(O)c3c(c(O)c1C2=O)C[C@@](O)(C(=O)CO)C[C@@H]3O[C@H]1C[C@H](N)[C@H](O)[C@H](C)O1 [ADR, adriamycin, reference compound]",Survivors on d90,M5076 sarcoma; 5 mg/kg,4/10
same,median T/C (survival),M5076 sarcoma; 5 mg/kg,320%
same,IC50,P388/VCR-20,340 nM
same,median T/C (tumour volume),colon 38,0%
same,Survivors on d60/total no. of mice,leukaemia P388 [1]; 10 mg/kg,2/10
same,T/C,leukaemia P388 [1]; 10 mg/kg,290%
same,"cures, treated mice (comparators)",leukaemia P388 [1],2
same,IC50,L1210,26.4 nM
same,IC50,KB-A1 [2],6870 nM
same,IC50,P388,20 nM
same,Survivors on d90,[3]; 5 mg/kg,2/10
same,median T/C (survival),[3]; 5 mg/kg,125%
same,median T/C (volume) d20,[3]; 5 mg/kg,44%
same,Survivors on d90,[3]; 10 mg/kg,3/10
same,median T/C (survival),[3]; 10 mg/kg,128%
same,median T/C (volume) d20,[3]; 10 mg/kg,1%
same,Survivors on d90,"[3]; 2,5 mg/kg",0/10
same,median T/C (survival),"[3]; 2,5 mg/kg",108%
same,median T/C (volume) d20,"[3]; 2,5 mg/kg",63%
same,activity against this very resistant model (in words),[3]; adriamycin at the maximum tolerated dose,far less active
same,gravimetric variation,leukaemia P388 [4],-0.7 g
same,IC50,S1,36 nM
same,IC50,KB-3-1,5 nM
"Cc1c2cc[n+](C)cc2c(C)c2c1[nH]c1ccc(O)cc12 [elliptinium acetate, reference compound]",resistance factor,KB-A1 [5],19
same,MTD,[6],2 mg/kg
same,Survivors on d90,M5076 sarcoma; 1 mg/kg,1/10
same,median T/C (survival),M5076 sarcoma; 1 mg/kg,153%
same,Survivors on d90,M5076 sarcoma; 2 mg/kg,0/10
same,median T/C (survival),M5076 sarcoma; 2 mg/kg,180%
same,activity against that tumour (in words),M5076 sarcoma; [7],not very active
same,survivors,M5076 sarcoma; [7],no animal has survived
same,Survivors on d60/total no. of mice,leukaemia P388 [1]; 5 mg/kg,0/10
same,T/C,leukaemia P388 [1]; 5 mg/kg,171%
same,gravimetric variation,"leukaemia P388 [1]; at the optimum dose used, equitoxic doses",-4 g
same,toxic at dose and above,"leukaemia P388 [1]; mouse, in vivo",≥ 5 mg/kg
same,"cures, treated mice (comparators)",leukaemia P388 [1],none
same,IC50,L1210,139 nM
same,IC50,KB-A1 [2],4320 nM
same,IC50,KB-3-1,226 nM
